In patent publication US6537587B1, “Compositions containing muscle-derived active agents” (Can-Fite Biopharma Ltd., priority 1999, dated 2003):

Tested on: peripheral blood leukocytes and neutrophils
Conditions: cyclophosphamide only, 50 mg/kg i.p.; blood at 96 hours; FIG. 4
Method: Mice were injected intraperitoneally (i.p.) with 50 mg/kg body weight of cyclophospharnide. The mice were then divided into the following three groups:
2. Mice receiving cyclophosphamide only (control 1); and
3. An additional group of mice received oral administration of water only (control 2).
Ninety six hours after the beginning of receiving the above treatments, blood samples were taken from each of the treated mice. Blood cell counts were carried out in a Coulter counter and differential cell counts were performed on smear preparations stained with May-Grunvald-Giemsa solution.

SMILES: O=P1(N(CCCl)CCCl)NCCCO1 (centres unmarked) [cyclophosphamide]
- number of neutrophils compared to mice without chemotherapeutic treatment (control 2): reduced
- number of peripheral blood leukocytes compared to mice without chemotherapeutic treatment (control 2): reduced
